# pIC50: −log10 of the molar value. Activity calls are given as the source filed them. The rule behind the calls is not given here.
# Tests used:
# [1] = biological target: T1, Protein-serine O-palmitoleoyltransferase porcupine (Mus musculus, UniProt Q9JJJ7); test: (§1) Inhibition of porcupine in mouse L Wnt3A cells co-cultured with HEK293 cells assessed as suppression of Wnt signaling after 48 hrs by Super-top flash reporter gene assay; assay type: cell-based
# T1 sequence (Q9JJJ7 whole entry): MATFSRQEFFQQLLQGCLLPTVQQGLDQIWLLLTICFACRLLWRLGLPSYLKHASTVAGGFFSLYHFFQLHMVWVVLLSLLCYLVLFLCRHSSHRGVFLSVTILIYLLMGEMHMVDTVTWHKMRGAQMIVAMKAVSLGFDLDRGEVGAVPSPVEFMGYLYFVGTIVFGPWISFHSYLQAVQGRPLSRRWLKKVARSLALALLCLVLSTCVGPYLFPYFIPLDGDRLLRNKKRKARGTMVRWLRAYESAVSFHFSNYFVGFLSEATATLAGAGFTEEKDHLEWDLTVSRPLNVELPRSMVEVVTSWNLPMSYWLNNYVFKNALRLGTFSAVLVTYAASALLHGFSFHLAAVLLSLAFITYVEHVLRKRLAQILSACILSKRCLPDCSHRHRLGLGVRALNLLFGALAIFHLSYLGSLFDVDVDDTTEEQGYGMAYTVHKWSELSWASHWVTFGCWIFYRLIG
# Protein smoothened [2] = biological target: Protein smoothened (Mus musculus, UniProt P56726); test: (§2) Inhibition of smo-mediated hedgehog signaling pathway in mouse NIH3T3 cells expressing GRE-Luc reporter gene assessed as inhibition of SAG-induced GRE-Luc reporter activity after 48 hrs by luminescence assay; assay type: functional, cell-based
# [3] = biological target: T2, Protein-serine O-palmitoleoyltransferase porcupine (Homo sapiens) (UniProt Q9H237); test: Inhibition of porcupine-mediated Wnt/beta-catenin signaling in human PA1 cells assessed as downregulation of Axin2 mRNA expression after 24 hrs by real-time PCR analysis; assay type: cell-based
# T2 sequence (whole entry): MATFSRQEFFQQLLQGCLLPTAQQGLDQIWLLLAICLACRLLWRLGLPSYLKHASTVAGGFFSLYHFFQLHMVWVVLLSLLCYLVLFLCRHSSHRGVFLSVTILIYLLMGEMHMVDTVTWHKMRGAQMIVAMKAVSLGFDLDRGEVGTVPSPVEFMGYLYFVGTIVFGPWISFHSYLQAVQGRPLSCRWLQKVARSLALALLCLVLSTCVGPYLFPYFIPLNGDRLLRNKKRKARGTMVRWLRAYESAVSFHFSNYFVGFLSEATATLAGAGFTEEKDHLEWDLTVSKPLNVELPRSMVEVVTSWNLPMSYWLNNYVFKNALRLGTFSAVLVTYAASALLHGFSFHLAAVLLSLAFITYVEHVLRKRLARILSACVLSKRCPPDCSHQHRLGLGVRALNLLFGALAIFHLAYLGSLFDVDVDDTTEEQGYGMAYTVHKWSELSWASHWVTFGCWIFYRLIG
# [4] = biological target: T3, Protein-serine O-palmitoleoyltransferase porcupine (Mus musculus) (UniProt Q9JJJ7); test: as §1; assay type: cell-based
# T3 sequence (whole entry): T1 sequence (Q9JJJ7 whole entry)
# [5] = biological target: T2, Protein-serine O-palmitoleoyltransferase porcupine (Homo sapiens); test: Inhibition of porcupine-mediated Wnt/beta-catenin signaling in human PA1 cells assessed as downregulation of LRP6 phosphorylation after 48 hrs by Western blot analysis; assay type: cell-based
# [6] = biological target: T2, Protein-serine O-palmitoleoyltransferase porcupine (Homo sapiens); test: Inhibition of porcupine in HEK293T cells transfected with pLibin-WNT3A plasmid assessed as reduction in Wnt3A secretion into cell culture medium at 100 nM after 48 hrs by Western blot method; assay type: cell-based
# [7] = biological target: T2, Protein-serine O-palmitoleoyltransferase porcupine (Homo sapiens); test: Inhibition of porcupine-mediated Wnt/beta-catenin signaling in human PA1 cells assessed as downregulation of disheveled 2 phosphorylation after 48 hrs by Western blot analysis; assay type: cell-based
# [8] = Oral bioavailability in ICR mouse at 10 mg/kg administered via gavage by LC-MS/MS analysis; assay type: ADME, organism-based; conditions: in vivo
# Mus musculus [9] = test: Toxicity in C57BL/6J mouse assessed as effect on kidney weight at 10 mg/kg administered for 7 days via oral gavage; assay type: organism-based; conditions: in vivo, 168 h
# HEK-293T = test: Effect on Wnt3A levels in HEK293T cells transfected with pLibin-WNT3A plasmid at 100 nM after 48 hrs by Western blot method; assay type: functional, cell-based; conditions: Homo sapiens
# Mus musculus [10] = test: Toxicity in C57BL/6J mouse assessed as effect on colon architecture at 10 mg/kg administered via oral gavage for 7 days by hematoxylin and eosin staining-based method; assay type: organism-based; conditions: in vivo, 168 h
# Mus musculus [11] = test: Toxicity in C57BL/6J mouse assessed as body weight loss at 10 mg/kg administered for 7 days via oral gavage; assay type: organism-based; conditions: in vivo, 168 h
# Mus musculus [12] = test: Toxicity in C57BL/6J mouse assessed as effect on liver architecture at 10 mg/kg administered via oral gavage for 7 days by hematoxylin and eosin staining-based method; assay type: organism-based; conditions: in vivo, 168 h
# [13] = AUC (0 to 24 hrs) in ICR mouse at 2 mg/kg, iv by LC-MS/MS analysis; assay type: ADME, organism-based; set-up: dose 2 mg/kg, time < 24 hr, route intravenous; conditions: in vivo
# [14] = Volume of distribution at steady state in ICR mouse at 2 mg/kg, iv by LC-MS/MS analysis; assay type: ADME, organism-based; conditions: in vivo, read-out: Vdss
# Mus musculus [15] = test: Toxicity in C57BL/6J mouse assessed as effect on spleen architecture at 10 mg/kg administered via oral gavage for 7 days by hematoxylin and eosin staining-based method; assay type: organism-based; conditions: in vivo, 168 h
# [16] = biological target: T2, Protein-serine O-palmitoleoyltransferase porcupine (Homo sapiens); test: Inhibition of porcupine in HEK293 cells transfected with pLibin-WNT3A plasmid assessed as downregulation of disheveled 2 phosphorylation at 100 nM after 48 hrs by Western blot analysis; assay type: cell-based
# [17] = Cmax in ICR mouse at 10 mg/kg, po administered via gavage by LC-MS/MS analysis; assay type: ADME, organism-based; set-up: dose 10 mg/kg, route oral; conditions: in vivo
# [18] = Half life in ICR mouse at 2 mg/kg, iv by LC-MS/MS analysis; assay type: ADME, organism-based; conditions: in vivo
# Mus musculus [19] = test: Toxicity in C57BL/6J mouse assessed as effect on spleen weight at 10 mg/kg administered for 7 days via oral gavage; assay type: organism-based; conditions: in vivo, 168 h
# GES1 = test: Cytotoxicity against human GES-1 cells up to 20 uM by Cell Titer-Glo assay; assay type: cell-based
# [20] = Protein binding in mouse plasma; assay type: ADME, cell-free; conditions: read-out: PPB (converted)
# [21] = biological target: T2, Protein-serine O-palmitoleoyltransferase porcupine (Homo sapiens); test: Inhibition of porcupine in HEK293 cells transfected with pLibin-WNT3A plasmid assessed as downregulation of LRP6 phosphorylation at 100 nM after 48 hrs by Western blot analysis; assay type: cell-based
# [22] = Half life in ICR mouse at 10 mg/kg, po administered via gavage by LC-MS/MS analysis; assay type: ADME, organism-based; conditions: in vivo
# Mus musculus [23] = test: Toxicity in C57BL/6J mouse assessed as effect on heart weight at 10 mg/kg administered for 7 days via oral gavage; assay type: organism-based; conditions: in vivo, 168 h
# Protein smoothened [24] = biological target: Protein smoothened (Homo sapiens, UniProt Q99835); test: Inhibition of Bodipy-cyclopamine binding to human Smo expressed in human U2OS cells after 2 hrs by high content fluorescence imaging analysis; assay type: cell-based
# Mus musculus [25] = test: Toxicity in C57BL/6J mouse assessed as effect on food consumption at 10 mg/kg administered for 7 days via oral gavage; assay type: organism-based; conditions: in vivo, 168 h
# [26] = Clearance in ICR mouse at 2 mg/kg, iv by LC-MS/MS analysis; assay type: ADME, organism-based; conditions: in vivo
# Mus musculus [27] = test: Time at which blood concentration stays above in vitro IC50 for porcupine-mediated Wnt signaling and smo-mediated hedgehog signaling pathway in ICR mouse at 10 mg/kg, po administered via gavage by LC-MS/MS analysis; assay type: ADME, organism-based; conditions: in vivo
# Mus musculus [28] = test: Toxicity in C57BL/6J mouse assessed as effect on lung weight at 10 mg/kg administered for 7 days via oral gavage; assay type: organism-based; conditions: in vivo, 168 h
# Mus musculus [29] = test: Toxicity in C57BL/6J mouse assessed as effect on platelet count in blood at 10 mg/kg administered for 7 days via oral gavage; assay type: organism-based; conditions: in vivo, 168 h
# Mus musculus [30] = test: Toxicity in C57BL/6J mouse assessed as effect on liver weight at 10 mg/kg administered for 7 days via oral gavage; assay type: organism-based; conditions: in vivo, 168 h
# Mus musculus [31] = test: Toxicity in C57BL/6J mouse assessed as effect on hemoglobin content in blood at 10 mg/kg administered for 7 days via oral gavage; assay type: organism-based; conditions: in vivo, 168 h
# Astrocyte = test: Cytotoxicity against primary astrocytes (unknown origin) up to 20 uM after 24 hrs by MTT assay; assay type: cell-based
# [32] = Tmax in ICR mouse at 10 mg/kg, po administered via gavage by LC-MS/MS analysis; assay type: ADME, organism-based; conditions: in vivo
# [33] = biological target: Protein smoothened (Mus musculus) (UniProt P56726); test: Inhibition of smo-mediated hedgehog signaling pathway in mouse NIH3T3-Luc cells assessed as downregulation of Gli mRNA expression after 48 hrs by real-time PCR analysis; assay type: functional, cell-based
# Mus musculus [34] = test: Toxicity in C57BL/6J mouse assessed as effect on lymphocyte count in blood at 10 mg/kg administered for 7 days via oral gavage; assay type: organism-based; conditions: in vivo, 168 h
# [35] = biological target: Protein smoothened (Mus musculus) (UniProt P56726); test: Inhibition of smo-mediated hedgehog signaling pathway in mouse NIH3T3-Luc cells assessed as downregulation of 1 to 100 nM SAG-induced Gli luciferase activity after 48 hrs luminescence assay; assay type: functional, cell-based
# [36] = AUC (0 to 24 hrs) in ICR mouse at 10 mg/kg, po administered via gavage by LC-MS/MS analysis; assay type: ADME, organism-based; set-up: time < 24 hr, dose 10 mg/kg, route oral; conditions: in vivo
# [37] = biological target: Protein smoothened (Mus musculus) (UniProt P56726); test: as §2; assay type: functional, cell-based
# Mus musculus [38] = test: Toxicity in C57BL/6J mouse assessed as effect on stomach architecture at 10 mg/kg administered via oral gavage for 7 days by hematoxylin and eosin staining-based method; assay type: organism-based; conditions: in vivo, 168 h
# Mus musculus [39] = test: Toxicity in C57BL/6J mouse assessed as effect on behavior at 10 mg/kg administered for 7 days via oral gavage; assay type: organism-based; conditions: in vivo, 168 h
# Mus musculus [40] = test: Toxicity in C57BL/6J mouse assessed as effect on WBC count in blood at 10 mg/kg administered for 7 days via oral gavage; assay type: organism-based; conditions: in vivo, 168 h
# Mus musculus [41] = test: Toxicity in C57BL/6J mouse assessed as effect on RBC count in blood at 10 mg/kg administered for 7 days via oral gavage; assay type: organism-based; conditions: in vivo, 168 h
# [42] = biological target: Protein smoothened (Mus musculus) (UniProt P56726); test: Inhibition of smo-mediated hedgehog signaling pathway in mouse NIH3T3-Luc cells assessed as downregulation of Gli mRNA expression at 1 uM after 48 hrs by real-time PCR analysis; assay type: functional, cell-based
# Chain of Protein smoothened (Mus musculus) (P56726 whole entry): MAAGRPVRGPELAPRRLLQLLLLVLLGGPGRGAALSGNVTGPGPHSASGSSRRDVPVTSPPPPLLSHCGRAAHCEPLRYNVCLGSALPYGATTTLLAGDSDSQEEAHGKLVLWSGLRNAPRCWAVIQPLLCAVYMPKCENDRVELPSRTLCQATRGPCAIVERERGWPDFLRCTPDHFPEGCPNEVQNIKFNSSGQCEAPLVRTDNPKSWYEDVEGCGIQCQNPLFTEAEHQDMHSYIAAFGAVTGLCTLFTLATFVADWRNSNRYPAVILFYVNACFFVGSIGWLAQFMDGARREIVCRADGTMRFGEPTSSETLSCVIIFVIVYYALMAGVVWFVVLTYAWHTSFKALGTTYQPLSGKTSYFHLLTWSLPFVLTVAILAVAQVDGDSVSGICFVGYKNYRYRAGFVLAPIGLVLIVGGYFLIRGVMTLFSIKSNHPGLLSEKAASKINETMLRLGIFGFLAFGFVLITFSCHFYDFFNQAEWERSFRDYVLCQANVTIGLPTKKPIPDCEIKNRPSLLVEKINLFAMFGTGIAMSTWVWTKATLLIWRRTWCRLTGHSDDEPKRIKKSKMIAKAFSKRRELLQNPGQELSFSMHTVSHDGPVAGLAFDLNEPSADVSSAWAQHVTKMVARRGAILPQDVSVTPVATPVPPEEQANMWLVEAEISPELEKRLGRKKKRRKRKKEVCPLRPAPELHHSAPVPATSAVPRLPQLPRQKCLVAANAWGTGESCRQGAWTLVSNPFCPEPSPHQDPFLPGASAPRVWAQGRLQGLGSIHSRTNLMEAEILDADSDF
# Chain of Protein smoothened (Mus musculus, UniProt P56726) (P56726 whole entry): as above
# Chain of Protein smoothened (Homo sapiens, UniProt Q99835) (Q99835 whole entry): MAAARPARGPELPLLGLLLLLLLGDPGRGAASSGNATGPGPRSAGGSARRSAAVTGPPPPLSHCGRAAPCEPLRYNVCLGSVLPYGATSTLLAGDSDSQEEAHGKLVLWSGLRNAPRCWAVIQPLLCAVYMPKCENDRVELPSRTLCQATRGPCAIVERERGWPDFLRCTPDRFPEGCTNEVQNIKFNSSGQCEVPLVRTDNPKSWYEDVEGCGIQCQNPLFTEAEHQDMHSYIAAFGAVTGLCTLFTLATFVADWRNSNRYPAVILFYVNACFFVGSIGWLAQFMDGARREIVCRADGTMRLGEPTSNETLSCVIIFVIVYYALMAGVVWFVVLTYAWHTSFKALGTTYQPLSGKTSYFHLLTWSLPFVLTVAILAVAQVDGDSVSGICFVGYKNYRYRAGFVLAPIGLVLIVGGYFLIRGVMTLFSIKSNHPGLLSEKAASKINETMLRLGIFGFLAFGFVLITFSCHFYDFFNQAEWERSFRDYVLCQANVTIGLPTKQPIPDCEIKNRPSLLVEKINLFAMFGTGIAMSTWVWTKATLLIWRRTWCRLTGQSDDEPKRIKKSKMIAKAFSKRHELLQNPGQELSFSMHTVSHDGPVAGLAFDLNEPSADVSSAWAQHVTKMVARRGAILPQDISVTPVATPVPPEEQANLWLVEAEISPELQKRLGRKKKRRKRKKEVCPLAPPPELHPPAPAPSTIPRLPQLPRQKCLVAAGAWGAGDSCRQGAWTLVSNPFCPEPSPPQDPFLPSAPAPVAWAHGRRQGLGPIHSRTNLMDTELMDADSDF
smiles,measurement,setting,value
Cc1cc(-c2ncc(CNC(=O)c3ccc4c(c3)Cc3ccccc3-4)cc2F)ccn1,pIC50,[1],8.19
COc1cc(CNC(=O)c2ccc3c(c2)[nH]c2ccccc23)cnc1-c1ccnc(C)c1,pIC50,[1],8.72
same,pIC50,Protein smoothened [2],5.44
Cc1cc(-c2ncc(CNC(=O)c3ccc4c(c3)oc3ccccc34)cc2F)ccn1,pIC50,[1],8.68
CS(=O)(=O)c1ccc(C(=O)Nc2ccc(Cl)c(-c3ccccn3)c2)c(Cl)c1,inhibition,[3],inactive
same,inhibition,[4],inactive
same,inhibition,[5],inactive
same,inhibition,[6],inactive
same,inhibition,[7],inactive
Cc1cc(-c2ncc(CNC(=O)c3ccc4c(c3)[nH]c3ccccc34)cc2C#N)ccn1,pIC50,[1],9.14
same,pIC50,Protein smoothened [2],5.91
Cc1cc(-c2ncc(CNC(=O)c3ccc4c(c3)[nH]c3ccccc34)cc2F)ccn1,bioavailability,[8],49%
same,inhibition,[3],Active
same,Activity,Mus musculus [9],Non-Toxic
same,Activity,HEK-293T,inactive
same,Activity,Mus musculus [10],Non-Toxic
same,Activity,Mus musculus [11],Non-Toxic
same,Activity,Mus musculus [12],Non-Toxic
same,AUC(0-t) at 24 h,[13],5460 ng·h/mL
same,Vd,[14],0.4 L/kg
same,Activity,Mus musculus [15],Non-Toxic
same,inhibition,[16],Active
same,inhibition,[5],Active
same,Cmax,[17],5140 ng/mL
same,half-life,[18],1.1 h
same,Activity,Mus musculus [19],Non-Toxic
same,Activity,GES1,Non-Toxic
same,fraction unbound,[20],0.007
same,inhibition,[21],Active
same,inhibition,[6],Active
same,half-life,[22],2.1 h
same,Activity,Mus musculus [23],Non-Toxic
same,pIC50,Protein smoothened [24],< 5.00
same,Activity,Mus musculus [25],Non-Toxic
same,clearance,[26],6.1 mL/min/kg
same,Time,Mus musculus [27],10 h
same,Activity,Mus musculus [28],Non-Toxic
same,Activity,Mus musculus [29],Non-Toxic
same,Activity,Mus musculus [30],Non-Toxic
same,Activity,Mus musculus [31],Non-Toxic
same,Activity,Astrocyte,Non-Toxic
same,Tmax,[32],0.5 h
same,inhibition,[33],Dose-dependent effect
same,Activity,Mus musculus [34],Non-Toxic
same,inhibition,[35],Active
same,AUC(0-t) at 24 h,[36],13500 ng·h/mL
same,pIC50,Protein smoothened [2],7.15
same,inhibition,[37],Dose-dependent effect
same,Activity,Mus musculus [38],Non-Toxic
same,Activity,Mus musculus [39],Non-Toxic
same,Activity,Mus musculus [40],Non-Toxic
same,Activity,Mus musculus [41],Non-Toxic
same,inhibition,[7],Active
Cc1cc(-c2ncc(CC(=O)Nc3ccc(-c4cnccn4)cn3)cc2C)ccn1,inhibition,[42],inactive
same,inhibition,[3],Active
same,Activity,HEK-293T,inactive
same,inhibition,[16],Active
same,inhibition,[5],Active
same,inhibition,[21],Active
same,inhibition,[6],Active
same,inhibition,[37],inactive
same,inhibition,[7],Active

# Reference: ChEMBL document CHEMBL4196048, “Discovery and characterization of a potent Wnt and hedgehog signaling pathways dual inhibitor” (Eur J Med Chem, 2018)
